Measured values reported in US20060276464A1, “Diarylsulfone sulfonamides and use thereof” (Wyeth, priority 2005, published 2006).
Where “and” joins values, the source holds several entries; their conditions need not be identical. Identical values can stand only once. Like-named read-outs stand apart in the source and are kept apart here.

Assays:
SFRP-1 [1] = molecular target: T1, SFRP-1 (Homo sapiens, UniProt Q8N474); assay: Fluorescence polarization binding assay (competitive displacement of a probe compound from SFRP-1); settings: fluorescence anisotropy, 45 nM SFRP-1, 20 nM probe;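 also: test compound competes with a fluorescent probe held by SFRP-1, seen as a drop in probe anisotropy after incubation in darkness, with anisotropy as function of rising compound dose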
T1 sequence (Q8N474 32-314): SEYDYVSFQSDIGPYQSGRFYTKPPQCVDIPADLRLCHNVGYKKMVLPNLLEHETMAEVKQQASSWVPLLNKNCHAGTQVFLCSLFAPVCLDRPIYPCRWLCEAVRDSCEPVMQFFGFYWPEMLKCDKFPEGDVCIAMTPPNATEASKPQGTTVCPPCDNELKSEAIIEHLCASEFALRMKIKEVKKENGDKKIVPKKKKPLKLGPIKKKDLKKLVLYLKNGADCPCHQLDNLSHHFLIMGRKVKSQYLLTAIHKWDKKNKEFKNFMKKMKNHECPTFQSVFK

SFRP-1 [2] = molecular target: T1, SFRP-1; assay: Cell-based assay for in vitro measurement of SFRP-1/SARP2 antagonist activity (U2OS cells co-transfected with 16x TCF-tk-Luciferase reporter, Wnt and hSFRP-1); settings: U2OS, single dose, luciferase reporter;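 also: U2OS cells co-transfected with a TCF-tk luciferase reporter, a Wnt vector, hSFRP-1 or empty vector and CMV-βgal, luciferase luminescence read in cell lysates alongside βgal activity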
[3] = read-out: Fold Induction with SFRP-1, Conc 15 μM, fold induction over SFRP-1 control, cells with SFRP-1
[4] = read-out: Fold Induction without SFRP-1, Conc 15 μM, cells without SFRP-1 (specificity control)

Structure (SMILES) | IC50 (SFRP-1 [1]) | fold induction at 15 µM (SFRP-1 [2]; [3]) | fold induction at 15 µM (SFRP-1 [2]; [4])
CC(C)c1ccc(S(=O)(=O)c2cccc(C#N)c2)cc1S(=O)(=O)NCCc1ccccn1 [Example 539, 5-[(3-cyanophenyl)sulfonyl]-2-isopropyl-N-(2-pyridin-2-ylethyl)benzenesulfonamide] | 2.6 µM | 2.9 | 1.2
CNc1ccc(S(=O)(=O)c2ccc(C(C)C)c(S(=O)(=O)NCC3CCOCC3)c2)cc1 [Example 543, 2-isopropyl-5-{[4-(methylamino)phenyl]sulfonyl}-N-(tetrahydro-2H-pyran-4-ylmethyl)benzenesulfonamide] | 0.8 µM and 1.6 µM | 2.7 | 1.1
CC(C)c1ccc(S(=O)(=O)c2ccc(N(C)C)cc2)cc1S(=O)(=O)NC1CCOCC1 [Example 544, 5-{[4-(dimethylamino)phenyl]sulfonyl}-2-isopropyl-N-(tetrahydro-2H-pyran-4-yl)benzenesulfonamide] | 0.8 µM and 1.7 µM | 2.7 | 1.2
CC(C)c1ccc(S(=O)(=O)c2ccc(N(C)C)cc2)cc1S(=O)(=O)NCC1CCOCC1 [Example 545, 5-{[4-(dimethylamino)phenyl]sulfonyl}-2-isopropyl-N-(tetrahydro-2H-pyran-4-ylmethyl)benzenesulfonamide] | 2 µM and 4 µM | 2.5 | 1.1
CC(C)c1ccc(S(=O)(=O)c2ccc(N(C)C)cc2)cc1S(=O)(=O)NCCC1CCOCC1 [Example 546, 5-{[4-(dimethylamino)phenyl]sulfonyl}-2-isopropyl-N-[2-(tetrahydro-2H-pyran-4-yl)ethyl]benzenesulfonamide] | 1.5 µM and 2.6 µM | 2.2 | 1.2
CC(C)c1ccc(S(=O)(=O)c2ccc(N3CCN(C)CC3)cc2)cc1S(=O)(=O)NC1CCOCC1 [Example 547, 2-isopropyl-5-{[4-(4-methylpiperazin-1-yl)phenyl]sulfonyl}-N-(tetrahydro-2H-pyran-4-yl)benzenesulfonamide] | 1 µM and 2.5 µM | 3.7 | 1.3
CC(C)c1ccc(S(=O)(=O)c2ccc(N3CCN(C)CC3)cc2)cc1S(=O)(=O)NCC1CCOCC1 [Example 548, 2-isopropyl-5-{[4-(4-methylpiperazin-1-yl)phenyl]sulfonyl}-N-(tetrahydro-2H-pyran-4-ylmethyl)benzenesulfonamide] | 2.2 µM | 2.5 | 1.2
CC(C)c1ccc(S(=O)(=O)c2ccc(N3CCN(C)CC3)cc2)cc1S(=O)(=O)NCCC1CCOCC1 [Example 549, 2-isopropyl-5-{[4-(4-methylpiperazin-1-yl)phenyl]sulfonyl}-N-[2-(tetrahydro-2H-pyran-4-yl)ethyl]benzenesulfonamide] | 1.6 µM and 2.9 µM | 3.6 | 1.5
CCCc1ccc(S(=O)(=O)c2ccccc2)cc1S(=O)(=O)NCCC1CCOCC1 [Example 553, 5-(Phenylsulfonyl)-2-propyl-N-[2-(tetrahydro-2H-pyran-4-yl)ethyl]benzenesulfonamide] | 3 µM | 2.5 | 1.1
CCCc1ccc(S(=O)(=O)c2ccccc2)cc1S(=O)(=O)NC1CCCC1 [Example 554, N-Cyclopentyl-5-(phenylsulfonyl)-2-propylbenzenesulfonamide] | 1.7 µM | 2.6 | 1.1
CCCc1ccc(S(=O)(=O)c2ccc(F)cc2)cc1S(=O)(=O)NCCC1CCOCC1 [Example 562, 5-[(4-Fluorophenyl)sulfonyl]-2-propyl-N-[2-(tetrahydro-2H-pyran-4-yl)ethyl]benzenesulfonamide] | 1.6 µM | 3.3 | 1.2
CCCc1ccc(S(=O)(=O)c2ccc(F)cc2)cc1S(=O)(=O)NC1CCCC1 [Example 563, N-Cyclopentyl-5-[(4-fluorophenyl)sulfonyl]-2-propylbenzenesulfonamide] | 3 µM | 2.8 | 1.2

Results, then the compound that gave them:

IC50 (SFRP-1 [1]) | fold induction at 15 µM (SFRP-1 [2]; [3]) | fold induction at 15 µM (SFRP-1 [2]; [4]) | Structure (SMILES)
0.4 µM | 3 | 1.2 | CC(C)c1ccc(S(=O)(=O)c2ccc(NCCC#N)cc2)cc1S(=O)(=O)NCC1CCOCC1 [Example 536, 5-({4-[(2-cyanoethyl)amino]phenyl}sulfonyl)-2-isopropyl-N-(tetrahydro-2H-pyran-4-ylmethyl)benzenesulfonamide]
0.7 µM | 2.9 | 1.1 | CC(C)c1ccc(S(=O)(=O)c2ccc(NCCC#N)cc2)cc1S(=O)(=O)NCCC1CCOCC1 [Example 537, 5-({4-[(2-cyanoethyl)amino]phenyl}sulfonyl)-2-isopropyl-N-[2-(tetrahydro-2H-pyran-4-yl)ethyl]benzenesulfonamide]
0.2 µM | 3.6 | 1.2 | CC(C)c1ccc(S(=O)(=O)c2ccc3[nH]ccc3c2)cc1S(=O)(=O)NCCc1ccccn1 [Example 540, 5-(1H-indol-5-ylsulfonyl)-2-isopropyl-N-(2-pyridin-2-ylethyl)benzenesulfonamide]
1.5 µM | 3.5 | 1.2 | Cc1ccccc1S(=O)(=O)c1ccc(C(C)C)c(S(=O)(=O)NC2CCOCC2)c1 [Example 541, 2-isopropyl-5-[(2-methylphenyl)sulfonyl]-N-(tetrahydro-2H-pyran-4-yl)benzenesulfonamide]
1.4 µM | 2.7 | 1.1 | Cc1c(Cl)cccc1S(=O)(=O)c1ccc(C(C)C)c(S(=O)(=O)NC2CCOCC2)c1 [Example 542, 5-[(3-chloro-2-methylphenyl)sulfonyl]-2-isopropyl-N-(tetrahydro-2H-pyran-4-yl)benzenesulfonamide]
1.3 µM | 2.9 | 1.1 | CCCc1ccc(S(=O)(=O)c2ccccc2)cc1S(=O)(=O)NCCc1ccccc1 [Example 550, N-(2-phenylethyl)-5-(phenylsulfonyl)-2-propylbenzenesulfonamide]
1.2 µM | 2.4 | 1.2 | CCCc1ccc(S(=O)(=O)c2ccccc2)cc1S(=O)(=O)NCC1CCOCC1 [Example 552, 5-(Phenylsulfonyl)-2-propyl-N-(tetrahydro-2H-pyran-4-ylmethyl)benzenesulfonamide]
1.2 µM | 2.3 | 1 | CCCc1ccc(S(=O)(=O)c2ccc(F)cc2)cc1S(=O)(=O)NCCc1ccccc1 [Example 559, 5-[(4-fluorophenyl)sulfonyl]-N-(2-phenylethyl)-2-propylbenzenesulfonamide]
1.4 µM | 2.3 | 0.9 | CCCc1ccc(S(=O)(=O)c2ccc(F)cc2)cc1S(=O)(=O)NCC1CCOCC1 [Example 561, 5-[(4-Fluorophenyl)sulfonyl]-2-propyl-N-(tetrahydro-2H-pyran-4-ylmethyl)benzenesulfonamide]
0.5 µM | 4 | 1.2 | CCCc1ccc(S(=O)(=O)c2ccc(F)cc2)cc1S(=O)(=O)NCCCn1ccnc1 [Example 565, 5-[(4-Fluorophenyl)sulfonyl]-N-[3-(1H-imidazol-1-yl)propyl]-2-propylbenzenesulfonamide]
